In the supplement of paper PMC10307832:

Experiments:
Test in all cases: relative viability (nuclei count vs DMSO), 5 days (fraction); higher = more cells survive
XMD13-2 + Luminespib = compound: C1CC1C(=O)NC2=NNC3=C2C=CC(=C3)C4=CC(=CC=C4)C(=O)NC5CC5 [XMD13-2] + CCNC(=O)c1noc(-c2cc(C(C)C)c(O)cc2O)c1-c1ccc(CN2CCOCC2)cc1 [Luminespib] (partner 0.01 µM)
Method in brief: (§1)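 After 5 days of treatment, lung cancer cells in 1536-well plates were fixed and stained in a single step (final 0.05% Triton X-100, 1% formaldehyde, 1 ug/ml Hoechst) and their nuclei counted on 4× images. Treatment had been applied by pin tool the day after seeding as one drug alone or as a fixed anchor-drug dose with five library-drug doses (not always all listed) in √10 steps. Relative viability is the nuclei count of treated wells divided by that of vehicle wells, and values are medians of duplicate plates.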

ALW-II-49-7 + Olaparib = compound: Cc1ccc(C(=O)Nc2cccc(C(F)(F)F)c2)cc1Nc1cncc(C(N)=O)c1 [ALW-II-49-7] + O=C(c1cc(Cc2n[nH]c(=O)c3ccccc23)ccc1F)N1CCN(C(=O)C2CC2)CC1 [Olaparib] (partner 8 µM)
Method in brief: as §1

XMD13-2 + Pictilisib = compound: C1CC1C(=O)NC2=NNC3=C2C=CC(=C3)C4=CC(=CC=C4)C(=O)NC5CC5 [XMD13-2] + CS(=O)(=O)N1CCN(Cc2cc3nc(-c4cccc5[nH]ncc45)nc(N4CCOCC4)c3s2)CC1 [Pictilisib] (partner 1 µM)
Method in brief: as §1

Dasatinib + AZD7762 = compound: Cc1nc(Nc2ncc(C(=O)Nc3c(C)cccc3Cl)s2)cc(N2CCN(CCO)CC2)n1 [Dasatinib] + NC(=O)Nc1cc(-c2cccc(F)c2)sc1C(=O)N[C@H]1CCCNC1 [AZD7762] (partner 0.2 µM)
Method in brief: as §1

Cell Line	relative viability (XMD13-2 + Luminespib; first compound 0.05 µM)	relative viability (XMD13-2 + Luminespib; first compound 0.1581 µM)	relative viability (XMD13-2 + Luminespib; first compound 0.5 µM)	relative viability (XMD13-2 + Luminespib; first compound 1.581 µM)	relative viability (XMD13-2 + Luminespib; first compound 5 µM)	relative viability (ALW-II-49-7 + Olaparib; first compound 0.08 µM)	relative viability (ALW-II-49-7 + Olaparib; first compound 0.253 µM)	relative viability (ALW-II-49-7 + Olaparib; first compound 0.8 µM)	relative viability (ALW-II-49-7 + Olaparib; first compound 2.53 µM)	relative viability (ALW-II-49-7 + Olaparib; first compound 8 µM)	relative viability (XMD13-2 + Pictilisib; first compound 0.05 µM)	relative viability (XMD13-2 + Pictilisib; first compound 0.1581 µM)	relative viability (XMD13-2 + Pictilisib; first compound 0.5 µM)	relative viability (XMD13-2 + Pictilisib; first compound 1.581 µM)	relative viability (XMD13-2 + Pictilisib; first compound 5 µM)	relative viability (Dasatinib + AZD7762; first compound 0.005 µM)	relative viability (Dasatinib + AZD7762; first compound 0.01581 µM)	relative viability (Dasatinib + AZD7762; first compound 0.05 µM)	relative viability (Dasatinib + AZD7762; first compound 0.1581 µM)	relative viability (Dasatinib + AZD7762; first compound 0.5 µM)
NCI-H727	0.475	0.326	0.352	0.34	0.378	0.663	0.843	0.603	0.501	0.597	0.421	0.321	0.36	0.527	0.551	0.547	0.587	0.595	0.375	0.35
NCI-H358	0.487	0.202	0.418	0.196	0.321	0.431	0.545	0.644	0.452	0.387	0.32	0.24	0.354	0.313	0.365	0.538	0.455	0.364	0.241	0.244
NCI-H1437	1.16	1.14	1.1	1.04	1.19	0.611	0.631	0.658	0.647	0.601	0.522	0.454	0.601	0.509	0.382	1.22	1.05	1.04	0.893	0.221
NCI-H441	0.314	0.382	0.375	0.432	0.315	0.592	0.52	0.592	0.47	0.383	0.445	0.505	0.539	0.37	0.411	1.27	1.01	0.904	0.723	0.364
EMC-BAC-2	1.36	1.1	1.05	1.14	1.04	0.482	0.475	0.445	0.396	0.367	0.596	0.497	0.531	0.505	0.413	1.05	1.03	0.776	0.591	0.391
NCI-H647	0.183	0.289	0.183	0.229	0.147	0.619	0.386	0.636	0.51	0.367	0.534	0.491	0.393	0.296	0.277	0.468	0.399	0.141	0.114	0.155
CAL-12T	0.373	0.832	0.933	0.286	0.75	0.797	0.644	0.773	0.753	0.719	0.531		0.339	0.327	0.371	0.637	0.584	0.681	0.613	0.538
NCI-H1792	0.25	0.462	0.447	0.571	0.377	0.501	0.384	0.6	0.327	0.342	0.29	0.249	0.266	0.284	0.265	0.62	0.532	0.489	0.19	0.0904
H3255	0.859	0.947	0.859	0.62	0.955	0.516	0.549	0.492	0.537	0.477	0.589	0.525	0.485	0.526	0.445	0.899	0.856	0.832	0.686	0.372
HCC-78						1.02	0.77	0.767	0.625	0.738	0.227	0.281	0.195	0.223	0.188	0.668	0.618	0.472	0.372	0.226
EBC-1						0.724	0.794	0.676	0.646	0.688	0.395	0.431	0.377	0.287	0.142					
NCI-H2405	0.853	0.634	0.578	0.641	0.633	0.856	0.97	0.86	0.811	0.785	0.539	0.543	0.434	0.389	0.474	0.656	0.514	0.368	0.212	0.228
A549						0.407	0.368	0.222	0.344	0.263	0.677	0.508	0.565	0.477	0.504					
NCI-H1563	0.521	0.526	0.527	0.536	0.506						0.581	0.665	0.737	0.651	0.605					
SW 900	0.192	0.174	0.2	0.178	0.19	0.652	0.759		0.741	0.931						0.592	0.534	0.371	0.36	0.147
IA-LM						0.823	0.718	0.726	0.628	0.355	0.387	0.317	0.339	0.3	0.179					
SK-MES-1	1.06	0.67	0.773	0.711	0.556	0.548	0.815	0.746	0.527	0.418	0.408	0.422	0.333	0.365	0.349					
Calu-6						0.588	0.521	0.576	0.45	0.417	1.09	0.92	0.909	0.757	0.439					

Cell Line	relative viability (XMD13-2 + Luminespib; first compound 0.05 µM)	relative viability (XMD13-2 + Luminespib; first compound 0.1581 µM)	relative viability (XMD13-2 + Luminespib; first compound 0.5 µM)	relative viability (XMD13-2 + Luminespib; first compound 1.581 µM)	relative viability (XMD13-2 + Luminespib; first compound 5 µM)	relative viability (ALW-II-49-7 + Olaparib; first compound 0.08 µM)	relative viability (ALW-II-49-7 + Olaparib; first compound 0.253 µM)	relative viability (ALW-II-49-7 + Olaparib; first compound 0.8 µM)	relative viability (ALW-II-49-7 + Olaparib; first compound 2.53 µM)	relative viability (ALW-II-49-7 + Olaparib; first compound 8 µM)	relative viability (XMD13-2 + Pictilisib; first compound 0.05 µM)	relative viability (XMD13-2 + Pictilisib; first compound 0.1581 µM)	relative viability (XMD13-2 + Pictilisib; first compound 0.5 µM)	relative viability (XMD13-2 + Pictilisib; first compound 1.581 µM)	relative viability (XMD13-2 + Pictilisib; first compound 5 µM)	relative viability (Dasatinib + AZD7762; first compound 0.005 µM)	relative viability (Dasatinib + AZD7762; first compound 0.01581 µM)	relative viability (Dasatinib + AZD7762; first compound 0.05 µM)	relative viability (Dasatinib + AZD7762; first compound 0.1581 µM)	relative viability (Dasatinib + AZD7762; first compound 0.5 µM)
SK-LU-1	0.217	0.239	0.227	0.194	0.211	0.543	0.49	0.451		0.362	0.604	0.671	0.658	0.563	0.502					
NCI-H2023	0.884	0.703	0.954	0.712	0.913	0.458	0.543	0.649	0.451	0.424	0.318	0.244	0.219	0.24	0.225					
HCC-366						0.423	0.333	0.377	0.337	0.301	0.189	0.136	0.151	0.2	0.12	0.234	0.248	0.143	0.159	0.0931
NCI-H1650	0.187	0.21	0.209	0.19	0.21	0.71	0.602	0.749	0.905	0.969	0.687	0.452	0.644	0.542	0.541					
SW 1573	0.276	0.239	0.308	0.188	0.213	0.508	0.561	0.469	0.505	0.349	0.57	0.525	0.476	0.466	0.272					
NCI-H661	0.904	0.907	0.904	0.953	0.725	0.736	0.85	0.762	0.801	0.733	0.469	0.529	0.421	0.344	0.383					
NCI-H2228	0.144	0.218	0.166	0.129	0.178	0.683	0.879	0.606	0.531	0.57	0.44	0.452	0.566	0.351	0.402					
COR-L23	0.883	0.581	0.592	0.769	0.607	0.327	0.343	0.327	0.313	0.292	0.8	0.72	0.857	0.818	0.64					
NCI-H2342	0.721	0.712	0.642	0.767	0.806	0.47	0.436	0.394	0.357	0.396						0.469	0.384	0.383	0.341	0.315
NCI-H1299						0.94	0.972	0.988	0.73	0.761	0.896	0.738	0.826	0.592	0.398					
NCI-H520	0.258	0.221	0.226	0.234	0.236	0.306	0.339	0.33	0.31	0.328	0.318	0.299	0.313	0.275	0.251					
NCI-H522	1.02	1.41	1.18	1.13	1.06	0.764	0.547	0.734	0.635	0.742						0.857	0.73	0.882	0.654	0.634
NCI-H1623	0.594	0.514	0.517	0.456	0.502															
NCI-H1648						1.52	0.684	0.656	0.48	0.808						0.677	0.725	0.724	0.369	0.254
NCI-H1703						0.492	0.398	0.358	0.245	0.245	0.296	0.262	0.267	0.237	0.193	0.128	0.121	0.139	0.116	0.13
COR-L 105	0.867	0.852	0.704	0.749	0.789	0.646	0.626	0.781	0.663	0.578	0.398	0.361	0.437	0.458	0.335					
NCI-H2009	1.01	1.01	1.01	1.02	1.19	0.601	0.654	0.665	0.422	0.428	0.838	0.945	0.904	0.822	0.566					
